The values below are quoted from earlier work in patent publication US20250073243A1, “LOW BACK PAIN TREATMENT” (Persica Pharmaceuticals Ltd., priority 2021, published 2025).

Converted amounts (≈) assume the structure as drawn.

The conditions of data set [1]: oral administration; patients with chronic LBP.

Regarding `CC(=O)NC[C@H]1CN(c2ccc(N3CCOCC3)c(F)c2)C(=O)O1` [linezolid, (S)—N-((3-(3-fluoro-4-morpholinophenyl)-2-oxooxazolidin-5-yl)methyl) acetamide], under “standard 600 mg linezolid dose”, the “Cmax observed for a standard linezolid dose” value is on record as “approximately 15 μg/ml”. For the same compound, for the setting “standard linezolid administration”, the “half-life of standard linezolid administration” value was 4 to 5 h. Further, the “minimum inhibitory concentration (MIC)” value in the data set with Gram-positive bacteria is 1 µg/mL (≈ 2.96 µM).

For amoxicillin-clavulanate, in data set [1], the “improvement in outcome measures” value is “clinically important and statistically significant (p<0.001) improvement in all outcome measures”.
